Laboratory results reported in paper PMC7550323 (Clinical Pharmacokinetics, 2020).
“And” between values parts separate entries of the source, which are not always exact repeats. Equal values may be shown once. Read-outs that look alike come from different tables or passages of the source.

What was measured:
[1] = type: in vivo, human
[2] = Hepatic impairment study, single-dose gilteritinib pharmacokinetics; type: in vivo, human; conditions: for AUC480, GLSM, Unbound / AUCinf, GLSM, Unbound / Cmax, GLSM, Unbound: single 10 mg dose, fasted, N = 8
[3] = CYP3A4 drug-drug interaction study in healthy subjects; type: in vivo, human; conditions: for AUCinf, GLSM ratio / AUClast, GLSM ratio / Cmax, GLSM ratio: 100 indicates no change
[4] = Effect of food study in healthy subjects; type: in vivo, human; conditions: single 40 mg dose
Population PK analysis = type: in vivo, human
[5] = type: in vivo, human; conditions: R/R AML; achievable at QD doses of 80 mg or greater
[6] = cited from earlier work
FLT3 [7] = conditions: doses of ≥ 80 mg/day; cited from earlier work
FLT3 [8] = conditions: cited from earlier work
c-Kit = conditions: preclinical evaluations; cited from earlier work
[9] = tested on: FLT3 receptors expressing the F691L gatekeeper mutation; conditions: cited from earlier work
MV4-11 AML cells = conditions: mice xenografted with MV4-11 AML cells; cited from earlier work
[10] = for half-life: t½, multiple dosing QD (Day 15), calculated from Rac
[11] = metabolite profiling after 14C-gilteritinib
[12] = single oral dose of 14C-gilteritinib
[13] = fluconazole + gilteritinib/gilteritinib alone
[14] = itraconazole + gilteritinib/gilteritinib alone
[15] = rifampicin + gilteritinib/gilteritinib alone

CCc1nc(C(N)=O)c(Nc2ccc(N3CCC(N4CCN(C)CC4)CC3)c(OC)c2)nc1NC1CCOCC1 [gilteritinib, Gilteritinib]
average total blood-to-plasma ratios of total 14C-radioactivity ([1]; after [14C]-gilteritinib 120 mg single dose at steady state): 0.8514–1.361 | radioactive peak in feces, accounting for [1, 11]: 11.7–23.8% | radioactive peak in urine, accounting for [1, 11]: 6.3–15.8% | total administered dose recovered in feces [1, 12]: 64.5% | total dose recovered in urine [1, 12]: 16.4% | total radioactive dose recovered [1, 12]: 80.9% | AUC480, GMR vs normal hepatic function, Total ([2]; mild hepatic impairment): 78.13% | AUC480, GMR vs normal hepatic function, Unbound ([2]; mild hepatic impairment): 87.59% | AUCinf, GMR vs normal hepatic function, Total ([2]; mild hepatic impairment): 78.88% | AUCinf, GMR vs normal hepatic function, Unbound ([2]; mild hepatic impairment): 88.42% | Cmax, GMR vs normal hepatic function, Total ([2]; mild hepatic impairment): 106.59% | Cmax, GMR vs normal hepatic function, Unbound ([2]; mild hepatic impairment): 119.49% | AUC480, GMR vs normal hepatic function, Total ([2]; moderate hepatic impairment): 60.55% | AUC480, GMR vs normal hepatic function, Unbound ([2]; moderate hepatic impairment): 87.21% | AUCinf, GMR vs normal hepatic function, Total ([2]; moderate hepatic impairment): 61.43% | AUCinf, GMR vs normal hepatic function, Unbound ([2]; moderate hepatic impairment): 88.48% | Cmax, GMR vs normal hepatic function, Total ([2]; moderate hepatic impairment): 81.73% | Cmax, GMR vs normal hepatic function, Unbound ([2]; moderate hepatic impairment): 117.72% | AUC480, GLSM, Unbound ([2]; mild hepatic impairment): 25.95 ng·h/mL | AUCinf, GLSM, Unbound ([2]; mild hepatic impairment): 27.53 ng·h/mL | Cmax, GLSM, Unbound ([2]; mild hepatic impairment): 0.5171 ng/mL | AUC480, GLSM, Unbound ([2]; moderate hepatic impairment): 25.84 ng·h/mL | AUCinf, GLSM, Unbound ([2]; moderate hepatic impairment): 27.54 ng·h/mL | Cmax, GLSM, Unbound ([2]; moderate hepatic impairment): 0.5095 ng/mL | AUC480, GLSM, Unbound ([2]; normal hepatic function): 29.62 ng·h/mL | AUCinf, GLSM, Unbound ([2]; normal hepatic function): 31.13 ng·h/mL | Cmax, GLSM, Unbound ([2]; normal hepatic function): 0.4328 ng/mL | increase in systemic exposure of gilteritinib ([3]; coadministration of itraconazole (strong CYP3A4 inhibitor)): ~ 2.2 fold and 2.2 fold | increase in gilteritinib systemic exposure ([3]; coadministration with fluconazole): ~ 1.43 fold | decrease in gilteritinib systemic exposure ([3]; concomitant administration of rifampicin): ~ 70% | AUCinf, GLSM ratio [3, 13]: 143.5% | AUClast, GLSM ratio [3, 13]: 144.0% | Cmax, GLSM ratio [3, 13]: 115.7% | AUCinf, GLSM ratio [3, 14]: 221.4% | AUClast, GLSM ratio [3, 14]: 213.5% | Cmax, GLSM ratio [3, 14]: 119.8% | AUCinf, GLSM ratio [3, 15]: 28.5% | AUClast, GLSM ratio [3, 15]: 29.2% | Cmax, GLSM ratio [3, 15]: 73.4% | AUC72, GMR (fed/fasted) [4]: 91.0% | AUCinf, GMR (fed/fasted) [4]: 93.8% | AUClast, GMR (fed/fasted) [4]: 94.6% | Cmax, GMR (fed/fasted) [4]: 74.0% | half-life (Population PK analysis; human, plasma, oral): 113 h | volume of distribution (Population PK analysis; in vivo): large volume of distribution | steady-state Ctrough at which composite complete response occurred more commonly [5]: ≥ 100 ng/mL | maximum tolerated dose ([6]; R/R AML, QD single agent): 300 mg/day | median overall survival duration ([6]; doses of ≥ 80 mg/day): 31 weeks | overall response rate ([6]; doses of ≥ 80 mg/day): 52% | maximum FLT3 inhibition (FLT3 [7]): > 90% | inhibition of FLT3 receptors with ITD and D835 mutations (FLT3 [8]): highly specific potent inhibition | selectivity for FLT3 (FLT3 [8]; preclinical evaluations): highly selective for FLT3 | activity against c-Kit (c-Kit): weak activity | activity against FLT3 receptors expressing the F691L gatekeeper mutation [9]: weak activity | effect on tumor growth (MV4-11 AML cells): inhibited tumor growth and induced tumor regression | dose proportionality of pharmacokinetics ([10]; 20 to 450 mg QD, R/R AML): dose-proportional pharmacokinetics | time at which steady state is achieved, based on Ctrough ([10]; QD dosing, visual inspection of median Ctrough): ≤ 15 days | AUC ([10]; human, plasma, oral, 20 mg, AUC24, Mean (SD), single dose (Day-2), n = 5): 302 ng·h/mL | AUC ([10]; human, plasma, oral, 20 mg, AUC24, Median (range), single dose (Day-2), n = 5): 262 ng·h/mL | Cmax ([10]; human, plasma, oral, 20 mg, Mean (SD), single dose (Day-2), n = 5): 28.1 ng/mL | Cmax ([10]; human, plasma, oral, 20 mg, Median (range), single dose (Day-2), n = 5): 23.7 ng/mL | Tmax ([10]; human, plasma, oral, 20 mg, Tmax, Median (range), single dose (Day-2), n = 5): 2 h | half-life ([10]; human, plasma, oral, 20 mg, Mean (SD), 20 mg, n = 3): 62.1 h | half-life ([10]; human, plasma, oral, 20 mg, Median (range), 20 mg, n = 3): 54.5 h | AUC ([10]; human, plasma, oral, 40 mg, AUC24, Mean (SD), single dose (Day-2), n = 3): 360 ng·h/mL
